Results on eight molecules are retold here after patent US9850272B2, “Therapeutically active estratrienthiazole derivatives as inhibitors of 17.beta-hydroxy-steroid dehydrogenase, type 1” (FORENDO PHARMA LTD, priority 2013, dated 2017).

Where a name gives a salt, the structure may show the parent alone. Read-outs that look alike come from different tables or passages of the source.

Data set [1] can be described thus: Metabolic stability assay, human liver microsome and homogenate incubations. Particulars: human liver homogenate or microsomes. It is filed as in vitro ADME. Here is the method:
Metabolic Stability Assay The in vitro metabolic stability of the compounds of the invention was determined for exemplified compounds using human liver microsome and homogenate incubations. The incubation time points used with or without appropriate cofactors were 0 min and 60 min. Samples were collected at both time points and substrates were detected using LC/PDA/TOF-MS. In vitro metabolic stability (% remaining after 60 min in human liver homogenate or microsomes) of the compounds were calculated and the results are summarized in Table 3.
In general terms: Microsomes from liver hold many membrane-bound enzymes, among them those of drug oxidation.

The target of data set [2] is T1, Recombinant Human 17β-HSD1 (Homo sapiens, UniProt P14061).
T1 construct: made in house; host or cells: Sd9 (Sf9) insect cells, baculovirus (Bac to Bac Expression System)
T1 sequence (P14061 1-328): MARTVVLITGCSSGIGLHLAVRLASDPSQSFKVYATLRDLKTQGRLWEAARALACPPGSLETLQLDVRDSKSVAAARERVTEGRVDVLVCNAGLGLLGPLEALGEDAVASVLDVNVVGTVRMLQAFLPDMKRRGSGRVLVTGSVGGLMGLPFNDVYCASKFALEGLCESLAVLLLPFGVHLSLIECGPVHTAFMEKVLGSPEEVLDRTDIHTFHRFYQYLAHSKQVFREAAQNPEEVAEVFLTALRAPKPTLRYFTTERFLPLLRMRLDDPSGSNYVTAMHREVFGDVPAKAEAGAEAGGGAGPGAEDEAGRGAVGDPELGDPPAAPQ
As to the kind of experiment: Inhibition of recombinant human 17β-HSD1 (conversion of 3H-estrone to estradiol, HPLC). It is filed as biochemical. Particulars: read-out: 17β-HDS1 Inhibition % at 1 μM. How it is done:
17β-HSD1 Production and Isolation:
Recombinant baculovirus was generated by the “Bac to Bac Expression System” (Invitrogen). Recombinant bacmid was transfected to Sd9 insect cells using “Cellfectin Reagent” (Invitrogen). 60 h later cells were harvested; the microsomal fraction was isolated as described by Puranen, T. J., Poutanen, M. H., Peltoketo, H. E., Vihko, P. T. and Vihko, R. K. (1994) Site-directed mutagenesis of the putative active site of human 17 β-hydroxysteroid dehydrogenase type 1. Biochem. J. 304: 289-293. Aliquots were stored frozen until determination of enzymatic activity.
Assay—Inhibition of Recombinant Human 17β-HSD1:
Recombinant protein (1 μg/ml) was incubated in 20 mM KH2PO4 pH 7.4 with 30 nM estrone (including 800.000 cpm/ml of ^3H-estrone) and 1 mM NADPH for 30 min at RT, in the presence of the potential inhibitor at concentrations 1 μM or 0.1 μM. Inhibitor stock solutions were prepared in DMSO. Final concentration of DMSO was adjusted to 1% in all samples. The enzyme reaction was stopped by addition of 10% trichloroacetic acid (final concentration). Samples were centrifuged in a microtiter plate at 4000 rpm for 10 min. Supernatants were applied to reverse phase HPLC on a Waters Symmetry C18 column, equipped with a Waters Sentry Guard column. Isocratic HPLC runs were performed at RT at a flow rate of 1 ml/min in acetonitrile:water 48:52 as running solvent. Radioactivity was monitored in the eluate by a Packard Flow Scintillation Analyzer. Total radioactivity for estrone and estradiol were determined in each sample and percent conversion of estrone to estradiol was calculated according to the following formula:
(§1) Percent inhibition was calculated flowingly: % inhibition=100−% conversion

Data set [3] deals with T2, Recombinant Human 17β-HSD2 (Homo sapiens, UniProt P37059).
T2 construct: made in house; host or cells: Sd9 (Sf9) insect cells, baculovirus (Bac to Bac Expression System)
T2 sequence (P37059 1-387): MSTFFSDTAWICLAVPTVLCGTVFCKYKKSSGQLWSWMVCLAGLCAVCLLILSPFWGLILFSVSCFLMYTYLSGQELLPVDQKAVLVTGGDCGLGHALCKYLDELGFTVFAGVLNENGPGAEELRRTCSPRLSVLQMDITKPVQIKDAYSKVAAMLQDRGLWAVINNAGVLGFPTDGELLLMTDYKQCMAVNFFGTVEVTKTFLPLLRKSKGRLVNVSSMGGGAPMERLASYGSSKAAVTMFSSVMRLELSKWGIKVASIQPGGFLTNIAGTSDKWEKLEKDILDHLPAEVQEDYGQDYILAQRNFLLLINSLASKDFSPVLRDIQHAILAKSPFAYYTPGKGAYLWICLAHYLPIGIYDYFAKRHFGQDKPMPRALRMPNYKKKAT
As to the kind of experiment: Inhibition of recombinant human 17β-HSD2 (conversion of 3H-estradiol to estrone, HPLC). Particulars: read-out: 17β-HSD2 Inhibition % at 1 μM. It is filed as biochemical. How it is done:
17β-HSD2 Production and Isolation:
Similarly to 17β-HSD1 the Recombinant baculovirus was generated by the “Bac to Bac Expression System” (Invitrogen). Recombinant bacmid was transfected to Sd9 insect cells using “Cellfectin Reagent” (Invitrogen). 60 h later cells were harvested and supernatant were fractionated by the following protocol: • cells were dissolved into 40 ml of A-buffer (40 mM TRIS, pH8.0, 20% glycerol, 20 μM NAD, 0.4 mM PMSF, 150 mM NaCl, 0.5% dodecyl-β-maltoside+protease inhibitor cocktail) • cells were sonicated • lysate was incubated on ice for 15 min • lysate was centrifuged 5000 rpm 15 min, +4° C. • centrifugation of the supernatant 180.000 g 30 min, +4° C. • pellet was dissolved into 8 ml of A-buffer • not resuspended material was removed by centrifugation 5000 rpm 15 min, +4° C. • the clear supernatant was divided into 100 μl aliquots and were stored frozen until determination of enzymatic activity.
The amount of 17β-HSD2 was analysed by immunoblotting and total protein concentration of each extract batch was determined.
Assay—Inhibition of Recombinant Human 17β-HSD2:
Recombinant protein (4 μg/ml) was incubated in 20 mM KH2PO4 pH 8.5 with 50 nM estradiol (including 800.000 cpm/ml of ^3H-estradiol) and 1 mM NADH for 30 min at RT, in the presence of the potential inhibitor at concentrations 1 μM or 0.1 μM. Inhibitor stock solutions were prepared in DMSO. Final concentration of DMSO was adjusted to 1% in all samples. The enzyme reaction was stopped by addition of 10% trichloroacetic acid (final concentration). Samples were centrifuged in a microtiter plate at 4000 rpm for 10 min. Supernatants were applied to reverse phase HPLC on a Waters Symmetry C18 column, equipped with a Waters Sentry Guard column. Isocratic HPLC runs were performed at RT at a flow rate of 1 ml/min in acetonitrile:water 48:52 as running solvent. Radioactivity was monitored in the eluate by a Packard Flow Scintillation Analyzer. Total radioactivity for estrone and estradiol were determined in each sample and percent conversion of estradiol to estrone was calculated according to the following formula:
as §1

Where [4] appears, read: inhibitor at 1 μM, 30 nM estrone, 1 mM NADPH, 30 min at RT.
[5] abbreviates: inhibitor at 1 μM, 50 nM estradiol, 1 mM NADH, 30 min at RT.

`CC(=O)O[C@H]1C[C@@H](CCC(=O)Nc2ncc(C)s2)C2C3CCc4cc(OC(=O)c5ccccc5)ccc4C3CC[C@@]21C` (stereo partly drawn) [Compound 55, Benzoic acid (13S,15R,17S)-17-acetoxy-13-methyl-15-[2-(5-methylthiazol-2-ylcarbamoyl)-ethyl]-17-oxo-7,8,9,11,12,13,14,15,16,17-decahydro-6H-cyclopenta[a]phenanthren-3-yl ester]: the “In vitro metabolic stability, % remaining after 60 min” value in data set [1] was found to be 47%.

In the case of `CCCC[C@]1(O)C[C@@H](CCC(=O)Nc2ncc(C)s2)C2C3CCc4cc(O)ccc4C3CC[C@@]21C` (stereo partly drawn) [Compound 19, 3-((13S,15R,17S)-17-butyl-3,17-dihydroxy-13-methyl-7,8,9,11,12,13,14,15,16,17-decahydro-6H-cyclopenta[a]phenanthren-15-yl)-N-(5-methylthiazol-2-yl)propanamide], the “In vitro metabolic stability, % remaining after 60 min” value in data set [1] is recorded as 90%. In addition, the inhibition at 1 µM was found to be 93% in data set [2] (setting [4]) and 6% in data set [3] (setting [5]).

For `CO[C@H]1C[C@@H](CCC(=O)Nc2ncc(C)s2)C2C3CCc4cc(O)ccc4C3CC[C@@]21C` (stereo partly drawn) [Compound 17, 3-((13S,15R,17S)-3-hydroxy-17-methoxy-13-methyl-7,8,9,11,12,13,14,15,16,17-decahydro-6H-cyclopenta[a]phenanthren-15-yl)-N-(5-methylthiazol-2-yl)propanamide], in data set [1], the “In vitro metabolic stability, % remaining after 60 min” value amounted to 37%. In addition, the inhibition at 1 µM in data set [2] (setting [4]) came to 79%; in data set [3] (setting [5]), 4%.

With `CC(=O)Oc1ccc2c(c1)CCC1C2CC[C@@]2(C)C1[C@H](CCC(=O)Nc1ncc(C)s1)C[C@@]2(O)C#N` (stereo partly drawn) [Compound 22, (13S,15R,17S)-17-cyano-17-hydroxy-13-methyl-15-(3-((5-methylthiazol-2-yl)amino)-3-oxopropyl)-7,8,9,11,12,13,14,15,16,17-decahydro-6H-cyclopenta[a]phenanthren-3-yl acetate], the figures for the inhibition at 1 µM in data set [2] (setting [4]) and in data set [3] (setting [5]) were 71% and 1%, respectively.

Regarding `Cc1cnc(NC(=O)CC[C@@H]2C[C@H](OC(=O)CCC(=O)O)[C@@]3(C)CCC4c5ccc(O)cc5CCC4C23)s1` (stereo partly drawn) [Compound 43, Succinic acid mono-{(13S,15R,17S)-3-hydroxy-13-methyl-15-[2-(5-methylthiazol-2-ylcarbamoyl)-ethyl]-17-oxo-7,8,9,11,12,13,14,15,16,17-decahydro-6H-cyclopenta[a]phenanthren-17-yl}ester], the figures for the inhibition at 1 µM in data set [2] (setting [4]) and in data set [3] (setting [5]) were 97% and 1%, respectively.

With `Cc1cnc(NC(=O)CC[C@@H]2C[C@H](O)[C@@]3(C)CCC4c5ccc(O)c(NC(C)C)c5CCC4C23)s1` (stereo partly drawn) [Compound 71, 3-((13S,15R,17S)-3,17-Dihydroxy-4-isopropylamino-13-methyl-7,8,9,11,12,13,14,15,16,17-decahydro-6H-cyclopenta[a]phenanthren-15-yl)-N-(5-methylthiazol-2-yl)propionamide], the inhibition at 1 µM in data set [2] (setting [4]) turned out to be 49%; in data set [3] (setting [5]), 10%.

In the case of `Cc1cnc(NC(=O)CC[C@@H]2C[C@H](OC(=O)CCC(=O)O)[C@@]3(C)CCC4c5ccc(O)cc5CCC4C23)s1` (some centres unmarked) [Compound 44, sodium salt], the inhibition at 1 µM was found to be 94% in data set [2] and 2% in data set [3].

With `CO[C@H]1C[C@@H](CCC(=O)Nc2ncc(C)s2)C2C3CCc4c(cc(Br)c(O)c4Br)C3CC[C@@]21C` (stereo partly drawn) [Compound 29, 3-((13S,15R,17S)-2,4-dibromo-3-hydroxy-17-methoxy-13-methyl-7,8,9,11,12,13,14,15,16,17-decahydro-6H-cyclopenta[a]phenanthren-15-yl)-N-(5-methylthiazol-2-yl)propanamide], the figures for the inhibition at 1 µM in data set [2] (setting [4]) and in data set [3] (setting [5]) were 67% and 3%, respectively.

As usually defined, the inhibition is the relative decrease from the control value, in per cent.
